The values that follow come from patent publication US12392778B2, “Method for proteome-wide discovery of covalent ligands and compositions thereof” (BridGene Biosciences, Inc., priority 2019, dated 2025).

The assay relates to SK-MEL-28 tumor cells. The assay is described as follows: Melanoma CDX model, SK-MEL-28 tumor growth. The format is in vivo, BALB/c nude mice. As to conditions: 60 mg/kg subcutaneously twice a day for 5 days, then once a day for 9 days; not statistically significant. As to the method:
For this model, BALB/c nude mice were inoculated subcutaneously (sc) with SK-MEL-28 tumor cells (5×10^6 in 0.1 mL PBS and Matigel, 1:1). […] Throughout the treatment period, tumor sizes were recorded. […] Vehicle control consisted of 5% DMSO and 95% of a 20% 2-hydroxypropyl-beta-cyclodextrin solution. Eight female mice were included in each group. t-test was done using GraphPad Software.

With `C#CCOc1cccc(Nc2ncnc3ccc(NC(=O)CCl)cc23)c1` [Compound 1], the “Tumor size compared to control” value is on record as “reduce tumor size compared to control starting at day 8”.
